Bounds are passed on as bounds.

The first assay has as its system T24/83 cells. Briefly: T24/83 cell proliferation assay (CellTiter-Glo). The assay is classed as cell-based. Particulars: Homo sapiens, 96 h, 4 days. The text has this: T24/83 cell line was purchased from the European Collection of Authenticated Cell Cultures (Salisbury, UK). Recombinant human farnesyl transferase (FTase) and geranylgeranyl transferase type-1 (GGTase) were obtained from Crelux (Martinsried, Germany). Dansyl labelled GCVLS peptide was purchased from Bachem (Torrance, CA), and Dansyl labelled GCVLL peptide was purchased from Bio Synthesis (Lewisville, TX). Farnesyl Pyrophosphate (FPP) and Geranylgeranyl pyrophosphate (GGPP) were purchased from Cayman (Ann Arbor, MI).
Mutant oncogenic HRAS was originally identified in a human bladder carcinoma cell line called T24. T24/83 is a subline of T24 established more recently that has more favorable growth characteristics for in vitro assays. Thus, T24/83 is a well-characterized mutant HRAS-dependent cell line that is an ideal model for quantifying the HRAS-dependent antitumor activity of farnesyltransferase inhibitors.
T24/83 cells were inoculated into 384 well plates at 100 cells/well, and grown in the presence of inhibitor, 0.7% DMSO as a negative control, or 100 μM tipifarnib as a positive control, at 37° C. for 4 days. Cell viability was assessed using the CellTiter-Glo Kit (CTG) (Promega; Madison, WI). Luminescence was recorded using EnVision microplate reader (PerkinElmer; Waltham, MA). In this assay, tipifarmib was used as a positive control. All the assay plates passed the QC criteria (S/B, Z-factor).
(In general: ATP-based viability assays read luminescence as a measure of living cells.)
Turning to `Cn1cncc1C1(O)c2ccc(Cl)c(c2)OCCc2cccc(c2)-c2cc(=O)[nH]c3ccc1cc23` (racemic) [Compound 25, (rac)-4^4-chloro-3-hydroxy-3-(1-methyl-1H-imidazol-5-yl)-2^1,2^2-dihydro-5-oxa-2(4,6)-quinolina-1,4(1,3)-dibenzenacycloheptaphan-2^2-one], the IC50 fell in the range of 50 to 500 nM.

In turn, `Cn1cncc1[C@@]1(N)c2ccc(C#N)c(c2)OCc2cccc(c2)-c2cc(=O)n(C)c3ccc1cc23` [(S)-19, (S)-3-amino-2^1-methyl-3-(1-methyl-1H-imidazol-5-yl)-2^2-oxo-2^1,2^2-dihydro-5-oxa-2(4,6)-quinolina-1,4(1,3)-dibenzenacyclohexaphane-4^4-carbonitrile] returned an IC50 of at most 50 nM.

In turn, `Cn1cncc1[C@@]1(N)c2ccc(C#N)c(c2)COc2cccc(c2)-c2cc(=O)n(CC(O)CO)c3ccc1cc23` (stereo partly drawn) [(S)-69, (3S)-3-amino-2^1-(2,3-dihydroxypropyl)-3-(1-methyl-1H-imidazol-5-yl)-2^2-oxo-2^1,2^2-dihydro-6-oxa-2(4,6)-quinolina-1,4(1,3)-dibenzenacyclohexaphane-4^4-carbonitrile] came in with an IC50 above 500 nM. In the case of `Cn1cncc1C1(O)c2cccc(c2)CCc2cccc(c2)-c2cc(=O)n(C)c3ccc1cc23` (stereo not drawn) [Compound 2, 3-hydroxy-2^1-methyl-3-(1-methyl-1H-imidazol-5-yl)-2^1,2^2-dihydro-2(4,6)-quinolina-1,4(1,3)-dibenzenacyclohexaphan-2^2-one], the IC50 fell in the range of 50 to 500 nM. On the same count and under the same terms, with `Cn1cncc1C1(O)c2cccc(c2)OCc2cccc(c2)-c2cc(=O)n(C)c3ccc1cc23` (stereo not drawn) [Compound 11, 3-hydroxy-2^1-methyl-3-(1-methyl-1H-imidazol-5-yl)-2^1,2^2-dihydro-5-oxa-2(4,6)-quinolina-1,4(1,3)-dibenzenacyclohexaphan-2^2-one] the figure was above 500 nM.

Another assay concerns the target T1, Recombinant human farnesyl transferase (FTase) (Homo sapiens, UniProt P49356).
T1 construct: purchased Crelux (Martinsried, Germany)
Kind of assay: FTase fluorescence assay (farnesylation of dansyl-GCVLS peptide). Particulars: recombinant human FTase 2.5 nM, Dansyl-GCVLS 85 nM, FPP 30 nM, 30° C., 50 minutes. It counts as biochemical.
Consider `Cn1cncc1C1(O)c2ccc(Cl)c(c2)OCCc2cccc(c2)-c2cc(=O)[nH]c3ccc1cc23` (racemic) [Compound 25, (rac)-4^4-chloro-3-hydroxy-3-(1-methyl-1H-imidazol-5-yl)-2^1,2^2-dihydro-5-oxa-2(4,6)-quinolina-1,4(1,3)-dibenzenacycloheptaphan-2^2-one], for which the IC50 is at most 10 nM. For `Cn1cncc1[C@@]1(N)c2ccc(C#N)c(c2)OCc2cccc(c2)-c2cc(=O)n(C)c3ccc1cc23` [(S)-19, (S)-3-amino-2^1-methyl-3-(1-methyl-1H-imidazol-5-yl)-2^2-oxo-2^1,2^2-dihydro-5-oxa-2(4,6)-quinolina-1,4(1,3)-dibenzenacyclohexaphane-4^4-carbonitrile], the IC50 was at most 10 nM. On to `Cn1cncc1[C@@]1(N)c2ccc(C#N)c(c2)COc2cccc(c2)-c2cc(=O)n(CC(O)CO)c3ccc1cc23` (stereo partly drawn) [(S)-69, (3S)-3-amino-2^1-(2,3-dihydroxypropyl)-3-(1-methyl-1H-imidazol-5-yl)-2^2-oxo-2^1,2^2-dihydro-6-oxa-2(4,6)-quinolina-1,4(1,3)-dibenzenacyclohexaphane-4^4-carbonitrile], for which the IC50 was at most 10 nM. Consider `Cn1cncc1C1(O)c2cccc(c2)CCc2cccc(c2)-c2cc(=O)n(C)c3ccc1cc23` (stereo not drawn) [Compound 2, 3-hydroxy-2^1-methyl-3-(1-methyl-1H-imidazol-5-yl)-2^1,2^2-dihydro-2(4,6)-quinolina-1,4(1,3)-dibenzenacyclohexaphan-2^2-one], for which the IC50 was in the range of 10 to 100 nM. Consider `Cn1cncc1C1(O)c2cccc(c2)OCc2cccc(c2)-c2cc(=O)n(C)c3ccc1cc23` (stereo not drawn) [Compound 11, 3-hydroxy-2^1-methyl-3-(1-methyl-1H-imidazol-5-yl)-2^1,2^2-dihydro-5-oxa-2(4,6)-quinolina-1,4(1,3)-dibenzenacyclohexaphan-2^2-one], for which the IC50 was at most 10 nM.

For the compound `Cn1cncc1C1(O)c2ccc(C#N)c(c2)OCc2cccc(c2)-c2cc(=O)[nH]c3ccc1cc23` (stereo not drawn) [Compound 17, 3-hydroxy-3-(1-methyl-1H-imidazol-5-yl)-2^2-oxo-2^1,2^2-dihydro-5-oxa-2(4,6)-quinolina-1,4(1,3)-dibenzenacyclohexaphane-4^4-carbonitrile], the IC50 is at most 10 nM. Turning to `Cn1cnnc1C1(O)c2ccc(Cl)c(c2)OCCc2cccc(c2)-c2cc(=O)[nH]c3ccc1cc23` (stereo not drawn) [Compound 31, 4^4-chloro-3-hydroxy-3-(4-methyl-4H-1,2,4-triazol-3-yl)-2^1,2^2-dihydro-5-oxa-2(4,6)-quinolina-1,4(1,3)-dibenzenacycloheptaphan-2^2-one], the IC50 was 10 to 100 nM. Same read-out and setting: with `[2H]C([2H])([2H])n1c(=O)cc2c3cc(ccc31)C(O)(c1nncn1C)c1ccc(Cl)c(c1)OCCc1cccc-2c1` (stereo not drawn) [Compound 32, 4^4-chloro-3-hydroxy-2^1-(methyl-d3)-3-(4-methyl-4H-1,2,4-triazol-3-yl)-2^1,2^2-dihydro-5-oxa-2(4,6)-quinolina-1,4(1,3)-dibenzenacycloheptaphan-2^2-one] the figure was 10 to 100 nM; with `[2H]C([2H])([2H])OC1(c2nncn2C)c2ccc(Cl)c(c2)OCCc2cccc(c2)-c2cc(=O)n(C([2H])([2H])[2H])c3ccc1cc23` (stereo not drawn) [Compound 33, 4^4-chloro-3-(methoxy-d3)-2^1-(methyl-d3)-3-(4-methyl-4H-1,2,4-triazol-3-yl)-2^1,2^2-dihydro-5-oxa-2(4,6)-quinolina-1,4(1,3)-dibenzenacycloheptaphan-2^2-one], 10 to 100 nM; with `Cn1cnnc1C1(O)c2ccc(C#N)c(c2)OCCc2cccc(c2)-c2cc(=O)n(C)c3ccc1cc23` (stereo not drawn) [Compound 38, 3-hydroxy-2^1-methyl-3-(4-methyl-4H-1,2,4-triazol-3-yl)-2^2-oxo-2^1,2^2-dihydro-5-oxa-2(4,6)-quinolina-1,4(1,3)-dibenzenacycloheptaphane-4^4-carbonitrile], at most 10 nM. Same read-out and setting: the result for `CNC1(c2nncn2C)c2ccc(Cl)c(c2)COc2cccc(c2)-c2cc(=O)n(C)c3ccc1cc23` (stereo not drawn) [Compound 50, 4^4-chloro-2^1-methyl-3-(4-methyl-4H-1,2,4-triazol-3-yl)-3-(methylamino)-2^1,2^2-dihydro-6-oxa-2(4,6)-quinolina-1,4(1,3)-dibenzenacyclohexaphan-2^2-one] reads at most 10 nM; that for `COc1cc2c3cc(ccc3n1)C(O)(c1cncn1C)c1ccc(C#N)c(c1)COc1cccc-2c1` (stereo not drawn) [Compound 53, 3-hydroxy-2^2-methoxy-3-(1-methyl-1H-imidazol-5-yl)-6-oxa-2(4,6)-quinolina-1,4(1,3)-dibenzenacyclohexaphane-4^4-carbonitrile], at most 10 nM; that for `Cn1cncc1C1(O)c2ccc(C#N)c(c2)COc2cccc(c2)-c2cc(=O)[nH]c3ccc1cc23` (stereo not drawn) [Compound 54, 3-hydroxy-3-(1-methyl-1H-imidazol-5-yl)-2^2-oxo-2^1,2^2-dihydro-6-oxa-2(4,6)-quinolina-1,4(1,3)-dibenzenacyclohexaphane-4^4-carbonitrile], at most 10 nM. As for `Cn1cncc1C1(O)c2cccc(c2)CCOc2cccc(c2)-c2cc(=O)n(C)c3ccc1cc23` (stereo not drawn) [Compound 63, 3-hydroxy-2^1-methyl-3-(1-methyl-1H-imidazol-5-yl)-2^1,2^2-dihydro-7-oxa-2(4,6)-quinolina-1,4(1,3)-dibenzenacycloheptaphan-2^2-one], the IC50 fell in the range of 10 to 100 nM.

For `COc1cc2c3cc(ccc3n1)C(O)(c1cncn1C)c1ccc(Cl)c(c1)CCOc1cccc-2c1` (stereo not drawn) [Compound 64, 4^4-chloro-2^2-methoxy-3-(1-methyl-1H-imidazol-5-yl)-7-oxa-2(4,6)-quinolina-1,4(1,3)-dibenzenacycloheptaphan-3-ol], the IC50 is above 100 nM. The same measure, in the same setting: with `Cn1cncc1C1(N)c2ccc(C#N)c(c2)COc2cccc(c2)-c2cc(N3CCNCC3)nc3ccc1cc23` (stereo not drawn) [Compound 67, 3-amino-3-(1-methyl-1H-imidazol-5-yl)-2^2-(piperazin-1-yl)-6-oxa-2(4,6)-quinolina-1,4(1,3)-dibenzenacyclohexaphane-4^4-carbonitrile] the figure was 10 to 100 nM; with `Cn1cncc1C1(N)c2ccc(C#N)c(c2)COc2cccc(c2)-c2cc(NC3COC3)nc3ccc1cc23` (stereo not drawn) [Compound 68, 3-amino-3-(1-methyl-1H-imidazol-5-yl)-2^2-(oxetan-3-ylamino)-6-oxa-2(4,6)-quinolina-1,4(1,3)-dibenzenacyclohexaphane-4^4-carbonitrile], 10 to 100 nM. Same read-out and setting: with `Cn1cncc1C1(N)c2ccc(Br)c(c2)COc2cccc(c2)-c2cc(Cl)nc3ccc1cc23` (stereo not drawn) [Compound 74, 4^4-bromo-2^2-chloro-3-(1-methyl-1H-imidazol-5-yl)-6-oxa-2(4,6)-quinolina-1,4(1,3)-dibenzenacyclohexaphan-3-amine] the figure was 10 to 100 nM; with `Cn1cncc1C1(N)c2ccc(Br)c(c2)COc2cccc(c2)-c2cc(OC3COC3)nc3ccc1cc23` (stereo not drawn) [Compound 75, 4^4-bromo-3-(1-methyl-1H-imidazol-5-yl)-2^2-(oxetan-3-yloxy)-6-oxa-2(4,6)-quinolina-1,4(1,3)-dibenzenacyclohexaphan-3-amine], above 100 nM; with `Cn1cncc1C1(N)c2ccc(Br)c(c2)COc2cccc(c2)-c2nc(N)nc3ccc1cc23` (stereo not drawn) [Compound 82, 4^4-bromo-3-(1-methyl-1H-imidazol-5-yl)-6-oxa-2(4,6)-quinazolina-1,4(1,3)-dibenzenacyclohexaphane-2^2,3-diamine], at most 10 nM. With `Cn1cncc1C1(O)c2ccc(Br)c(c2)COc2cccc(c2)-c2cncc3ccc1cc23` (stereo not drawn) [Compound 83, 4^4-bromo-3-(1-methyl-1H-imidazol-5-yl)-6-oxa-2(4,6)-isoquinolina-1,4(1,3)-dibenzenacyclohexaphan-3-ol], the IC50 is at most 10 nM. With `Cn1cncc1C1(O)c2ccc(Br)c(c2)COc2cccc(c2)-c2nccc3ccc1cc23` (stereo not drawn) [Compound 84, 4^4-bromo-3-(1-methyl-1H-imidazol-5-yl)-6-oxa-2(1,7)-isoquinolina-1,4(1,3)-dibenzenacyclohexaphan-3-ol], the IC50 was in the range of 10 to 100 nM. Same read-out and setting: with `Cn1cncc1C1(O)c2ccc(C#N)c(c2)COc2cccc(c2)-c2nccc3ccc1cc23` (stereo not drawn) [Compound 85, 3-hydroxy-3-(1-methyl-1H-imidazol-5-yl)-6-oxa-2(1,7)-isoquinolina-1,4(1,3)-dibenzenacyclohexaphane-4^4-carbonitrile] the figure was 10 to 100 nM; with `COc1cc2c3cc(cnc3c1)C(O)(c1cncn1C)c1ccc(Br)c(c1)COc1cccc-2c1` (stereo not drawn) [Compound 87, 4^4-bromo-2^7-methoxy-3-(1-methyl-1H-imidazol-5-yl)-6-oxa-2(5,3)-quinolina-1,4(1,3)-dibenzenacyclohexaphan-3-ol], above 100 nM; with `COc1cc2c3cc(cnc3c1)C(O)(c1cncn1C)c1ccc(C#N)c(c1)COc1cccc-2c1` (stereo not drawn) [Compound 88, 3-hydroxy-2^7-methoxy-3-(1-methyl-1H-imidazol-5-yl)-6-oxa-2(5,3)-quinolina-1,4(1,3)-dibenzenacyclohexaphane-4^4-carbonitrile], at most 10 nM.

Broadly, the IC50 is the concentration that inhibits the measured activity by half.

For the origin of these results see patent publication US12018011B2, “Macrocyclic compounds and compositions, and methods of preparing and using the same” (Kura Oncology, Inc., priority 2021, dated 2024).
